# Data taken from US7241803B2, “Compounds for inhibition of HIV infection by blocking HIV entry” (New York Blood Center, priority 2002, dated 2007).
# Legend:
# [1] = tested on: HIV-1 94UG103 (clade A, X4R5); assay: infection of PBMCs by primary HIV-1 isolate, p24 production; format: cell-based; conditions: Primary 94UG103 (clade A, X4R5)
# Excerpt: (§1) Culture media were changed every 3 days.
# [2] = tested on: HIV-1 93IN101 (clade C, R5); assay: as above; format: cell-based; conditions: Primary 93IN101 (clade C, R5)
# Excerpt: as §1
# [3] = tested on: HIV-1 92US657 (clade B, R5); assay: as above; format: cell-based; conditions: Primary 92US657 (clade B, R5)
# Excerpt: as §1
# [4] = tested on: HIV-1 BCF02 (Group O, R5); assay: as above; format: cell-based
# Excerpt: as §1
# [5] = tested on: HIV-1 SF2 (clade B, X4); assay: infection by laboratory-adapted HIV-1 strain, p24 production; format: cell-based
# Excerpt: (§2) Assessment of anti-HIV-1 infectivity. […] Reactions were terminated by addition of 1N H2SO4.
# [6] = tested on: MT-2 cells; conditions: trypan blue, 2 hr
# Procedure: Detection of in vitro cytotoxicity. The in vitro cytotoxicity of compounds for MT-2 cells was measured using trypan blue dye exclusion assay (41). Briefly, 100 μl of MT-2 cells (2×10^6/ml) were incubated with an equal volume of a compound diluted in culture media at graded concentrations at 37° C. for 2 hr. Ten microliters of cell suspension was transferred to a well of round-bottom plate and mixed with 10 μl of 0.04% trypan blue solution. The number of viable cells was counted using a hemocytometer under a microscope. The CC50 (the concentration for 50% cytotoxicity) values were calculated using the software Calcusyn (6).
# [7] = molecular target: gp41 six-helix bundle formed by N36 and C34-FITC (Human immunodeficiency virus type 1 group M subtype B, UniProt P04578); conditions: 200 μg/ml; for gp41 six-helix bundle formation in FN-PAGE: added after N36 preincubated with C34-FITC; for gp41 six-helix bundle band in FN-PAGE: preincubated with N36 before addition of C34-FITC
# Procedure: Fluorescence native polyacrylamide gel electrophoresis (FN-PAGE). FN-PAGE was performed as previously described (32). Briefly, 18% pre-cast Tris-Glycine gels and Novex X-Cell II Mini cell (Invitrogen, Carlsbad, Calif.) were used for native-PAGE. […] In the control, N36 was incubated with C34-FITC at 37° C. for 30 min before addition of the compounds. After incubation at 37° C. for another 30 min, the mixture was diluted in Tris-Glycine native sample buffer, then loaded to 10×1.0 mm wells. Gel electrophdrosis was carried out with 125 V constant voltage at room temperature for about 90 min in Tris-Glycine native running buffer. Immediately after electrophoresis, image of the fluorescence bands in the gel was taken by the FluorChem 8800 Imaging System (Alpha Innotech corp., San Leandro, Calif.) using a transillumination UV light source with excitation wavelength at 302 nm and a fluorescence filter with emission wavelength at 520 nm.
# [8] = tested on: gp41 pocket presented on IQN17
# Procedure: Inhibition of a biotinylated D-peptide binding to IQN17. For measuring the binding of a D-peptide, D10-p5-2k to IQN17, an ELISA was established. In brief, wells of a 96-well polystyrene plate were coated with IgG (10 μg/ml) purified from rabbit antisera directed against IQN17. The peptide IQN17 (10 μM) was incubated with a compound at graded concentrations at 37° C. for 30 min before addition of the peptide D10-p5-2K-biotin (5 μM). After incubation at 37° C. for 30 min, the mixture was added to the plate, followed by incubation at 37° C. for 30 min. After extensive washes, D10-p5-2K-biotin bound to the IQN17 was quantitated by addition of SA-HRP and TMB sequentially. The absorbance at 450 nm was read using an ELISA reader (Tecan). The percentage of inhibition by the compounds was calculated as described above.
# [9] = tested on: HIV-1IIIB; assay: time-of-addition assay; format: cell-based; conditions: for time of addition at which HIV replication is inhibited: summary statement
# Procedure: as §2
# MT-2 cells were incubated with HIV-1IIIB at 37° C. for 0, 1, 2, 3, 4, 6, and 8 hrs, respectively, before addition of the test compounds at 10 μg/ml. AZT (2.5 μM) was used as a control. After culture for another 2 hrs, the cells were washed to remove the free virus and compounds. The supernatants were collected on day 4 post-infection for measurement of p24 production.
# [10] = tested on: HIV-1 RF (clade B, X4); assay: infection by laboratory-adapted HIV-1 strain, p24 production; format: cell-based
# Procedure: Assessment of anti-HIV-1 infectivity. The inhibitory activity of compounds on infection by laboratory-adapted HIV-1 strains was determined as previously described (18). In brief, 1×10^4 MT-2 cells were infected with HIV-1 at 100 TCID50 (50% tissue culture infective dose) in 200 μl of RPMI 1640 medium containing 10% FBS in the presence or absence of compounds at graded concentrations overnight. For the time-of-addition assay, compounds were added at various time post-infection. Then the culture supernatants were removed and fresh media were added. On the fourth day post-infection, 100 μl of culture supernatants were collected from each well, mixed with equal volumes of 5% Triton X-100 and assayed for p24 antigen, which was quantitated by ELISA (51). Briefly, the wells of polystyrene plates (Immulon 1B, Dynex Technology, Chantilly, Va.) were coated with HIV immunoglobulin (HIVIG), which was prepared from plasma of HIV-seropositive donors with high neutralizing titers against HIV-1IIIB as previously described (44) in 0.085 M carbonate-bicarbonate buffer (pH 9.6) at 4° C. overnight, followed by washes with PBS-T buffer (0.01M PBS containing 0.05% Tween-20) and blocking with PBS containing 1% dry fat-free milk (Bio-Rad Inc., Hercules, Calif.). Virus lysates were added to the wells and incubated at 37° C. for 1 h. […] Absorbance at 450 nm was recorded in an ELISA reader (Ultra 384, Tecan). […]
# [11] = tested on: HIV-1IIIB; assay: inhibition of HIV-1IIIB replication (p24 production) in MT-2 cells; format: cell-based; conditions: for IC50: HIV-1IIIB replication, MT-2 cells; for inhibitory activity on HIV-1IIIB replication: concentration up to 80 μg/ml
# Excerpt: as §2
# [12] = 10 μg/ml added one hour or longer after virus
# [13] = 10 μg/ml added to the cells with virus together
# gp41 six-helix bundle formed by N36 and C34-FITC, sequence (P04578 546-581): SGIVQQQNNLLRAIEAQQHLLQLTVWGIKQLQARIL
SMILES,IC50 (μg/ml) for inhibition of p24 production [1] [µg/mL],IC50 (μg/ml) for inhibition of p24 production [2] [µg/mL],IC50 (μg/ml) for inhibition of p24 production [3] [µg/mL],IC50 (μg/ml) for inhibition of p24 production [4] [µg/mL],IC50 (μg/ml) for inhibition of p24 production [5] [µg/mL],CC50 [6] [µg/mL],gp41 six-helix bundle formation in FN-PAGE [7],gp41 six-helix bundle band in FN-PAGE [7],inhibition of biotinylated D10-p5-2K binding to IQN17 [8],"inhibition of HIV-1 replication, time of addition [9, 12]","inhibition of HIV-1 replication, time of addition [9, 13]",time of addition at which HIV replication is inhibited [9],IC50 (μg/ml) for inhibition of p24 production [10] [µg/mL],IC50 [11] [µg/mL],inhibitory activity on HIV-1IIIB replication [11]
Cc1ccc(C)n1-c1ccc(C(=O)O)c(O)c1 [NB-2],5.92 ± 0.06,1.05 ± 0.23,10.41 ± 1.88,0.21 ± 0.12,0.44 ± 0.03,305.60 ± 5.04,not inhibited,the intensity of the upper bands were significantly decreased,significantly inhibited,no inhibitory activity,inhibited HIV-1 replication,only when they were added to the cells less than two hours after virus addition,0.45 ± 0.04,0.24 ± 0.05,significantly inhibited
O=C(O)c1cc(-n2cccc2)ccc1Cl [NB-64],7.94 ± 0.96,4.38 ± 0.19,6.60 ± 1.80,1.31 ± 0.90,1.34 ± 0.06,>500,not inhibited,the intensity of the upper bands were significantly decreased,significantly inhibited,no inhibitory activity,inhibited HIV-1 replication,only when they were added to the cells less than two hours after virus addition,0.96 ± 0.03,0.49 ± 0.09,significantly inhibited
